{
  "source": "paper PMC5218480",
  "about": "(PLoS ONE, 2017)",
  "tested_on": "MV-4-11 cells",
  "experiment": "Gene expression microarray analysis (Affymetrix PrimeView) and GSEA",
  "type": "cell-based, human",
  "design": "RFU PODN (11730768_x_at) / Fold change /veh PODN (11730768_x_at) / RFU LINC00158 (11744669_a_at) / Fold change /veh LINC00158 (11744669_a_at) / RFU DUSP10 (11751237_a_at) / Fold change /veh DUSP10 (11751237_a_at) / RFU ID3 (11757404_x_at) / Fold change /veh ID3 (11757404_x_at) / RFU PLEKHG5 (11737974_s_at) / Fold change /veh PLEKHG5 (11737974_s_at) / RFU LRRC4B (11730491_at) / Fold change /veh LRRC4B (11730491_at) / RFU GIMAP4 (11747438_a_at) / Fold change /veh GIMAP4 (11747438_a_at) / RFU KRT8 (11758183_x_at) / Fold change /veh KRT8 (11758183_x_at) / RFU CNN1 (11734310_a_at) / Fold change /veh CNN1 (11734310_a_at) / RFU VPS37D (11726825_at) / Fold change /veh VPS37D (11726825_at) / RFU C10orf10 (11716522_x_at) / Fold change /veh C10orf10 (11716522_x_at) / RFU KIR2DL2 /// KIR2DL4 /// KIR2DL5A /// KIR2DL5B /// KIR2DS1 /// KIR2DS2 /// KIR2DS3 /// KIR2DS4 /// KIR3DL3 /// KIR3DL3 /// KIR3DS1 (11738374_at) / Fold change /veh KIR2DL2 /// KIR2DL4 /// KIR2DL5A /// KIR2DL5B /// KIR2DS1 /// KIR2DS2 /// KIR2DS3 /// KIR2DS4 /// KIR3DL3 /// KIR3DL3 /// KIR3DS1 (11738374_at) / RFU C1QL1 (11718748_at) / Fold change /veh C1QL1 (11718748_at) / RFU TMPRSS4 (11747572_a_at) / Fold change /veh TMPRSS4 (11747572_a_at) / RFU HAMP (11756126_x_at) / Fold change /veh HAMP (11756126_x_at) / RFU RNFT2 (11725882_a_at) / Fold change /veh RNFT2 (11725882_a_at) / RFU NR4A2 (11747474_a_at) / Fold change /veh NR4A2 (11747474_a_at) / RFU ABCC12 (11746883_a_at) / Fold change /veh ABCC12 (11746883_a_at) / RFU TMEM136 (11760407_x_at) / Fold change /veh TMEM136 (11760407_x_at) / RFU CLDN22 /// WWC2 (11732394_at) / Fold change /veh CLDN22 /// WWC2 (11732394_at) / RFU HLA-DPB1 (11760878_x_at) / Fold change /veh HLA-DPB1 (11760878_x_at) / RFU SPINT1 (11716480_a_at) / Fold change /veh SPINT1 (11716480_a_at) / RFU GAP43 (11754022_s_at) / Fold change /veh GAP43 (11754022_s_at) / RFU A4GNT (11735810_at) / Fold change /veh A4GNT (11735810_at) / RFU PRB3 (11715151_x_at) / Fold change /veh PRB3 (11715151_x_at) / RFU TUBB4B (11761932_at) / Fold change /veh TUBB4B (11761932_at) / RFU CAPN14 (11732068_a_at) / Fold change /veh CAPN14 (11732068_a_at) / RFU TMCC2 (11721928_a_at) / Fold change /veh TMCC2 (11721928_a_at) / RFU IRGQ (11745062_a_at) / Fold change /veh IRGQ (11745062_a_at) / RFU FAM174B (11720279_a_at) / Fold change /veh FAM174B (11720279_a_at) / RFU TMPRSS4 (11748680_a_at) / Fold change /veh TMPRSS4 (11748680_a_at) / RFU FAM212B (11763350_a_at) / Fold change /veh FAM212B (11763350_a_at) / RFU PLEKHG5 (11743358_a_at) / Fold change /veh PLEKHG5 (11743358_a_at) / RFU ZSCAN30 (11745921_a_at) / Fold change /veh ZSCAN30 (11745921_a_at) / RFU CMKLR1 (11741424_a_at) / Fold change /veh CMKLR1 (11741424_a_at) / RFU LOC101060620 /// MAPK8IP1 (11723275_at) / Fold change /veh LOC101060620 /// MAPK8IP1 (11723275_at) / RFU SPTSSB (11747773_x_at) / Fold change /veh SPTSSB (11747773_x_at) / RFU PRSS12 (11739890_at) / Fold change /veh PRSS12 (11739890_at) / RFU BIN1 (11741810_x_at) / Fold change /veh BIN1 (11741810_x_at) / RFU WNT11 (11732464_a_at) / Fold change /veh WNT11 (11732464_a_at) / RFU C10orf10 (11716521_a_at) / Fold change /veh C10orf10 (11716521_a_at) / RFU C5orf56 (11738089_at) / Fold change /veh C5orf56 (11738089_at) / RFU CYB561 (11721691_x_at) / Fold change /veh CYB561 (11721691_x_at) / RFU ANKRD19P (11752326_a_at) / Fold change /veh ANKRD19P (11752326_a_at) / RFU OR2T12 /// OR2T33 /// OR2T8 (11738714_s_at) / Fold change /veh OR2T12 /// OR2T33 /// OR2T8 (11738714_s_at) / RFU VCAN (11748164_a_at) / Fold change /veh VCAN (11748164_a_at) / RFU JSRP1 (11732532_at) / Fold change /veh JSRP1 (11732532_at) / RFU KRTAP10-11 (11738290_x_at) / Fold change /veh KRTAP10-11 (11738290_x_at) / RFU MYO3A (11730013_a_at) / Fold change /veh MYO3A (11730013_a_at) / RFU EBF3 (11725865_a_at) / Fold change /veh EBF3 (11725865_a_at) / RFU CAMK2N1 (11719241_x_at) / Fold change /veh CAMK2N1 (11719241_x_at) / RFU C5orf56 (11738088_a_at) / Fold change /veh C5orf56 (11738088_a_at) / RFU OLFML3 (11715873_a_at) / Fold change /veh OLFML3 (11715873_a_at) / RFU LOC100653217 /// NTM (11731650_a_at) / Fold change /veh LOC100653217 /// NTM (11731650_a_at) / RFU MAPK11 (11762145_a_at) / Fold change /veh MAPK11 (11762145_a_at) / RFU FIZ1 (11724087_x_at) / Fold change /veh FIZ1 (11724087_x_at) / RFU OASL (11726364_x_at) / Fold change /veh OASL (11726364_x_at) / RFU SOX15 (11748057_x_at) / Fold change /veh SOX15 (11748057_x_at) / RFU CD79A (11719716_a_at) / Fold change /veh CD79A (11719716_a_at) / RFU HIST1H1D (11736915_at) / Fold change /veh HIST1H1D (11736915_at) / RFU CASKIN2 (11723855_a_at) / Fold change /veh CASKIN2 (11723855_a_at) / RFU LOC730098 (11760151_x_at) / Fold change /veh LOC730098 (11760151_x_at) / RFU OR4N2 (11742367_at) / Fold change /veh OR4N2 (11742367_at) / RFU PRRT2 (11749266_a_at) / Fold change /veh PRRT2 (11749266_a_at) / RFU SNX32 (11753110_a_at) / Fold change /veh SNX32 (11753110_a_at) / RFU CDHR5 (11726645_a_at) / Fold change /veh CDHR5 (11726645_a_at) / RFU RCAN1 (11760418_a_at) / Fold change /veh RCAN1 (11760418_a_at) / RFU FAM167A (11723789_a_at) / Fold change /veh FAM167A (11723789_a_at) / RFU FAM26E (11764081_at) / Fold change /veh FAM26E (11764081_at) / RFU ISYNA1 (11749810_s_at) / Fold change /veh ISYNA1 (11749810_s_at) / RFU ACY1 (11761880_at) / Fold change /veh ACY1 (11761880_at) / RFU 11764098_at / Fold change /veh 11764098_at / RFU SAMD14 (11745864_x_at) / Fold change /veh SAMD14 (11745864_x_at) / RFU NPB (11741838_a_at) / Fold change /veh NPB (11741838_a_at) / RFU TMPRSS6 (11731388_a_at) / Fold change /veh TMPRSS6 (11731388_a_at) / RFU KRTAP10-2 (11738614_at) / Fold change /veh KRTAP10-2 (11738614_at) / RFU ARHGAP8 /// PRR5-ARHGAP8 (11727945_x_at) / Fold change /veh ARHGAP8 /// PRR5-ARHGAP8 (11727945_x_at) / RFU KRTAP5-7 /// NADSYN1 (11734609_at) / Fold change /veh KRTAP5-7 /// NADSYN1 (11734609_at) / RFU RASL12 (11751679_a_at) / Fold change /veh RASL12 (11751679_a_at) / RFU CDKN2B (11736163_a_at) / Fold change /veh CDKN2B (11736163_a_at) / RFU PRF1 (11729649_at) / Fold change /veh PRF1 (11729649_at) / RFU, ZNF638 /// ZNF638-IT1 / Fold change vs veh, ZNF638 /// ZNF638-IT1 / RFU, PANK3 / Fold change vs veh, PANK3 / RFU, SH3YL1 / Fold change vs veh, SH3YL1 / RFU, ZEB2 / Fold change vs veh, ZEB2 / RFU, NRIP1 / Fold change vs veh, NRIP1 / RFU, PTTG1IP / Fold change vs veh, PTTG1IP / RFU, CAPN2 / Fold change vs veh, CAPN2 / RFU, MED14 / Fold change vs veh, MED14 / RFU, SNORA58 / Fold change vs veh, SNORA58 / RFU, C1orf63 / Fold change vs veh, C1orf63 / RFU, LRRFIP1 / Fold change vs veh, LRRFIP1 / RFU, NDUFAF7 / Fold change vs veh, NDUFAF7 / RFU, SLC12A2 / Fold change vs veh, SLC12A2 / RFU, IBTK / Fold change vs veh, IBTK / RFU, ESF1 / Fold change vs veh, ESF1 / Fold change vs veh, TMEM50B / RFU, TAOK1 / Fold change vs veh, TAOK1 / RFU, ACBD3 / Fold change vs veh, ACBD3 / RFU, TMA16 / Fold change vs veh, TMA16 / RFU, RWDD3 / Fold change vs veh, RWDD3 / RFU, BCAT1 / Fold change vs veh, BCAT1 / RFU, EDEM3 / Fold change vs veh, EDEM3 / RFU, TMEM33 / Fold change vs veh, TMEM33 / RFU, WDR75 / Fold change vs veh, WDR75 / RFU, AHCTF1 / Fold change vs veh, AHCTF1 / RFU, TFRC / Fold change vs veh, TFRC / RFU, ZDHHC17 / Fold change vs veh, ZDHHC17 / RFU, NOM1 / Fold change vs veh, NOM1 / RFU, ARL8B / Fold change vs veh, ARL8B / RFU, ZBTB11 / Fold change vs veh, ZBTB11 / RFU, TAMM41 / Fold change vs veh, TAMM41 / RFU, KIAA1704 /// LOC100996395 / Fold change vs veh, KIAA1704 /// LOC100996395 / RFU, ING1 / Fold change vs veh, ING1 / RFU, TRMT61B / Fold change vs veh, TRMT61B / RFU, FUBP3 / Fold change vs veh, FUBP3 / RFU, TP53 / Fold change vs veh, TP53 / RFU, TNKS2 / Fold change vs veh, TNKS2 / RFU, ZFP14 / Fold change vs veh, ZFP14 / RFU, ACTR2 / Fold change vs veh, ACTR2 / RFU, PPP3R1 / Fold change vs veh, PPP3R1 / RFU, PIK3R1 / Fold change vs veh, PIK3R1 / RFU, HNRNPA1 / Fold change vs veh, HNRNPA1 / RFU, RNF170 / Fold change vs veh, RNF170 / RFU, ZNF28 / Fold change vs veh, ZNF28 / RFU, RNGTT / Fold change vs veh, RNGTT / RFU, OGT / Fold change vs veh, OGT / RFU, BRD1 / Fold change vs veh, BRD1 / RFU, MARS / Fold change vs veh, MARS / RFU, ZNF655 / Fold change vs veh, ZNF655 / RFU, FAHD1 / Fold change vs veh, FAHD1 / RFU, BDP1 / Fold change vs veh, BDP1 / RFU, LRRCC1 / Fold change vs veh, LRRCC1 / RFU, ARID1A / Fold change vs veh, ARID1A / RFU, ZNF146 / Fold change vs veh, ZNF146 / RFU, ZNF330 / Fold change vs veh, ZNF330 / RFU, GPN3 / Fold change vs veh, GPN3 / RFU, C9orf123 / Fold change vs veh, C9orf123 / RFU, N4BP2L2 / Fold change vs veh, N4BP2L2 / RFU, ARFIP1 / Fold change vs veh, ARFIP1 / RFU, FAM179B / Fold change vs veh, FAM179B / RFU, BCL10 / Fold change vs veh, BCL10 / RFU, UHRF1BP1L / Fold change vs veh, UHRF1BP1L / RFU, BET1 / Fold change vs veh, BET1 / RFU, CNOT2 / Fold change vs veh, CNOT2 / RFU, ZNF268 / Fold change vs veh, ZNF268 / Fold change vs veh, ZNF507 / RFU, DGCR2 / Fold change vs veh, DGCR2 / RFU, WDSUB1 / Fold change vs veh, WDSUB1 / Fold change vs veh, HSP90B1 /// MIR3652 / RFU, ADSS / Fold change vs veh, ADSS / RFU, GK / Fold change vs veh, GK / RFU, ZNF148 / Fold change vs veh, ZNF148 / RFU, TAF9 / Fold change vs veh, TAF9 / RFU, SLC1A5 / Fold change vs veh, SLC1A5 / RFU, SLMO2 / Fold change vs veh, SLMO2 / RFU, ABCC4 / Fold change vs veh, ABCC4 / RFU, LOC101060439 /// RAP1B / Fold change vs veh, LOC101060439 /// RAP1B / RFU, RFX7 / Fold change vs veh, RFX7 / RFU, GTPBP10 / Fold change vs veh, GTPBP10 / RFU, CNEP1R1 / Fold change vs veh, CNEP1R1 / RFU, BIVM-ERCC5 /// ERCC5 / Fold change vs veh, BIVM-ERCC5 /// ERCC5 / RFU, ILF3 / Fold change vs veh, ILF3 / RFU 11762660_at / Fold change /veh 11762660_at / RFU VCAN (11757783_s_at) / Fold change /veh VCAN (11757783_s_at) / RFU DDX43 (11728927_at) / Fold change /veh DDX43 (11728927_at) / RFU KRT8 (11758188_x_at) / Fold change /veh KRT8 (11758188_x_at) / RFU NKD1 (11759106_at) / Fold change /veh NKD1 (11759106_at) / RFU SRD5A1 (11742802_a_at) / Fold change /veh SRD5A1 (11742802_a_at) / RFU TPSAB1 /// TPSB2 (11721975_s_at) / Fold change /veh TPSAB1 /// TPSB2 (11721975_s_at) / RFU GSTM3 (11746129_a_at) / Fold change /veh GSTM3 (11746129_a_at) / RFU IL23R (11737362_x_at) / Fold change /veh IL23R (11737362_x_at) / RFU TMEM51 (11727254_a_at) / Fold change /veh TMEM51 (11727254_a_at) / RFU PIWIL2 (11732686_x_at) / Fold change /veh PIWIL2 (11732686_x_at) / RFU ORM1 (11744905_x_at) / Fold change /veh ORM1 (11744905_x_at) / RFU CCDC152 (11743942_at) / Fold change /veh CCDC152 (11743942_at) / RFU ECM1 (11717891_a_at) / Fold change /veh ECM1 (11717891_a_at) / RFU IL23R (11748794_a_at) / Fold change /veh IL23R (11748794_a_at) / RFU TNFAIP8L3 (11732012_x_at) / Fold change /veh TNFAIP8L3 (11732012_x_at) / RFU MBOAT4 (11741988_at) / Fold change /veh MBOAT4 (11741988_at) / RFU 11764193_at / Fold change /veh 11764193_at / RFU TMEM53 (11763286_at) / Fold change /veh TMEM53 (11763286_at) / RFU MAGEB2 (11727129_at) / Fold change /veh MAGEB2 (11727129_at) / RFU TMEM200A (11744735_a_at) / Fold change /veh TMEM200A (11744735_a_at) / RFU CCDC152 (11751479_a_at) / Fold change /veh CCDC152 (11751479_a_at) / RFU FAM211A (11726209_a_at) / Fold change /veh FAM211A (11726209_a_at) / RFU RGS16 (11746705_a_at) / Fold change /veh RGS16 (11746705_a_at) / RFU VCAN (11755009_s_at) / Fold change /veh VCAN (11755009_s_at) / RFU RHOB (11743442_s_at) / Fold change /veh RHOB (11743442_s_at) / RFU RGS16 (11720943_a_at) / Fold change /veh RGS16 (11720943_a_at) / RFU RGS16 (11720944_at) / Fold change /veh RGS16 (11720944_at) / RFU, VPS4B / Fold change vs veh, VPS4B / RFU, CREB1 / Fold change vs veh, CREB1 / RFU, DNAJC13 / Fold change vs veh, DNAJC13 / RFU, GNAQ / Fold change vs veh, GNAQ / RFU, CDK5R1 / Fold change vs veh, CDK5R1 / RFU, ZRANB3 / Fold change vs veh, ZRANB3 / RFU, CUL4A / Fold change vs veh, CUL4A / RFU, CCNY / Fold change vs veh, CCNY / RFU, UFL1 / Fold change vs veh, UFL1 / RFU, COG3 / Fold change vs veh, COG3 / RFU, DIAPH2 / Fold change vs veh, DIAPH2 / RFU, SKA2 / Fold change vs veh, SKA2 / RFU, AFF3 / Fold change vs veh, AFF3 / RFU, LMF1 / Fold change vs veh, LMF1 / RFU, IPO11 / Fold change vs veh, IPO11 / RFU, DFFB / Fold change vs veh, DFFB / RFU, FOXP1 / Fold change vs veh, FOXP1 / RFU, CARD8 / Fold change vs veh, CARD8 / RFU, STRN3 / Fold change vs veh, STRN3 / RFU, ADK / Fold change vs veh, ADK / RFU, RASSF2 / Fold change vs veh, RASSF2 / RFU, WIPF1 / Fold change vs veh, WIPF1 / RFU, LARP1B / Fold change vs veh, LARP1B / RFU, RASA1 / Fold change vs veh, RASA1 / RFU, RB1 / Fold change vs veh, RB1 / RFU, PPFIA1 / Fold change vs veh, PPFIA1 / RFU, MAT2A / Fold change vs veh, MAT2A / RFU, CCT5 / Fold change vs veh, CCT5 / RFU, WDR92 / Fold change vs veh, WDR92 / RFU, CUX1 / Fold change vs veh, CUX1 / RFU, TTC7A / Fold change vs veh, TTC7A / RFU, TMEM135 / Fold change vs veh, TMEM135 / RFU, DEPTOR / Fold change vs veh, DEPTOR / RFU, CPM / Fold change vs veh, CPM / RFU, DNAJB6 / Fold change vs veh, DNAJB6 / RFU, CACNA2D3 / Fold change vs veh, CACNA2D3 / RFU, DTX4 / Fold change vs veh, DTX4 / RFU, TFCP2 / Fold change vs veh, TFCP2 / RFU, GMCL1 /// GMCL1P1 / Fold change vs veh, GMCL1 /// GMCL1P1 / RFU, AEBP2 / Fold change vs veh, AEBP2 / RFU, SNHG1 /// SNORD22 /// SNORD25 /// SNORD26 /// SNORD27 /// SNORD28 /// SNORD29 /// SNORD31 / Fold change vs veh, SNHG1 /// SNORD22 /// SNORD25 /// SNORD26 /// SNORD27 /// SNORD28 /// SNORD29 /// SNORD31 / Fold change (Aza/veh), C12orf56 (ProbeSet 11735607_a_at) / Fold change (ACY-1035/veh), C12orf56 (ProbeSet 11735607_a_at) / Fold change (Aza/veh), FGFR1OP (ProbeSet 11751329_s_at) / Fold change (ACY-1035/veh), FGFR1OP (ProbeSet 11751329_s_at) / Fold change (Aza/veh), VPS36 (ProbeSet 11739960_a_at) / Fold change (ACY-1035/veh), VPS36 (ProbeSet 11739960_a_at) / RFU SYPL1 (11715823_x_at) / Fold change /veh SYPL1 (11715823_x_at) / RFU IGFBP7 (11715501_s_at) / Fold change /veh IGFBP7 (11715501_s_at) / RFU REEP3 (11722064_at) / Fold change /veh REEP3 (11722064_at) / RFU IGLL1 (11728026_x_at) / Fold change /veh IGLL1 (11728026_x_at): dose or concentration left out as unconfirmed",
  "details": "ProbeSet 11719493_s_at; LIST B",
  "data": [
    {"smiles": "Nc1ccc(-c2cccs2)cc1NC(=O)c1ccc2c(c1)cc(C1CC1)n2CCN1CCOCC1", "note": "[ACY-1035]", "values": [
      {"measurement": "RFU, TAF9", "result": 511.51, "unit": "RFU"}
    ]}
  ]
}
